What was measured:
CT26.WT cancer cells [1] = experiment: Survival of mice with colon cancer (CT26.WT cells, intravenous model); format: in vivo, female BALB/cAnNRJ mice
Excerpt: (§1) All mice were purchased from Janvier Labs® (France). Male BALB/cAnNRJ mice were used for the renal cancer model (Renca cells, intraperitoneal model). Female BALB/cAnNRJ mice were used for the colon cancer models (CT26WT cells, intraperitoneal and intravenous models), and for the triple negative breast cancer model (4T1 cells, intravenous model). Female C57BL/6J mice were used for the lung cancer model (LLc1 cells, intravenous model) and for the melanoma model (B16-F10 cells, intravenous model). All mice were 12 weeks or older at the beginning of the experiments. Treatments started 8 days after the injection of the cancer cells for the 4T1 breast cancer model and for the Renca renal cancer model (when the number of injected cells was 100.000). Treatments started 7 days after the injection for the Renca cancer model when the number of inoculated cells was 150.000, and for the LLc1 lung cancer model. […]
(§2) Murine cells (5th-7th passage) were cultured in 75-cm2 flask. […] Cells were counted again. […] After inoculating the last mice, the cells in the last tube were placed in a flask and monitored during several weeks under the microscope to ensure that all mice were inoculated with viable cells.
(§3) One day before the start of the treatments, mice were housed in individual cages to avoid cannibalism. […] Animals were monitored daily and body weights were determined periodically (at least three times per week). […]

CT26.WT cancer cells [2] = experiment: Survival of mice with colon cancer (CT26.WT cells, intraperitoneal model); format: in vivo, female BALB/cAnNRJ mice
Excerpt: (§4) All mice were purchased from Janvier Labs® (France). Male BALB/cAnNRJ mice were used for the renal cancer model (Renca cells, intraperitoneal model). Female BALB/cAnNRJ mice were used for the colon cancer models (CT26WT cells, intraperitoneal and intravenous models), and for the triple negative breast cancer model (4T1 cells, intravenous model). Female C57BL/6J mice were used for the lung cancer model (LLc1 cells, intravenous model) and for the melanoma model (B16-F10 cells, intravenous model). All mice were 12 weeks or older at the beginning of the experiments. Treatments started 8 days after the injection of the cancer cells for the 4T1 breast cancer model and for the Renca renal cancer model (when the number of injected cells was 100.000). Treatments started 7 days after the injection for the Renca cancer model when the number of inoculated cells was 150.000, and for the LLc1 lung cancer model. Treatments started 4 days after the injection in the CT26WT colon cancer models (intraperitoneal and intravenous) and in the B16-F10 melanoma model.
Murine cells (5th-7th passage) were cultured in 75-cm2 flask. When the cells were approximately 60-70% confluent, medium was removed and cells were washed twice with sterile PBS. Then, cells were incubated with trypsin/EDTA solution for 2-3 min at 37° C. to allow cells to have a rounded shape but without detaching. Next, trypsin/EDTA solution was aspirated, cells were resuspended in 5 mL sterile PBS and the cell suspension was pipetted up and down to break up any cell aggregate before adding 10% FBS supplemented medium. […] Cells were counted again. […] After inoculating the last mice, the cells in the last tube were placed in a flask and monitored during several weeks under the microscope to ensure that all mice were inoculated with viable cells.
as §3

4T1 cancer cells = experiment: Survival of mice with triple negative breast cancer (4T1 cells, intravenous model); format: in vivo; conditions: for mean survival (FIG. 4): 100,000 4T1 cells tail vein, treatment from day 8, diets 28 days, capecitabine 450 mg/kg/day oral cycles, cisplatin 5 mg/kg weekly x4 ip, control 26.1 days; for Survival improvement vs untreated mice (mean, days): Breast cancer, 4T1 cells, 100.000, tail vein injection (iv)
Excerpt: as §4
(§5) Murine cells (5th-7th passage) were cultured in 75-cm2 flask. When the cells were approximately 60-70% confluent, medium was removed and cells were washed twice with sterile PBS. Then, cells were incubated with trypsin/EDTA solution for 2-3 min at 37° C. to allow cells to have a rounded shape but without detaching. Next, trypsin/EDTA solution was aspirated, cells were resuspended in 5 mL sterile PBS and the cell suspension was pipetted up and down to break up any cell aggregate before adding 10% FBS supplemented medium. Then, a working cell suspension (between 5×10^5-25×10^6 cells/mL depending on cancer model) was prepared. This suspension was centrifuged (5 min, 250 g) at room temperature. Medium was removed and cells were resuspended in warm 2.5% FBS supplemented medium. The working cell suspension was aliquoted into 2 mL tubes and they were kept at 37° C. in a humidified atmosphere containing 5% CO2 until use. Several minutes before the injection, tubes were centrifuged at 300 g 4° C. for 3 min, medium was removed and cells were resuspended in sterile PBS. Cells were counted again. Finally, a 1-mL syringe (insulin type with a 29-G×½″ needle) was filled with 0.2 mL of the working cell suspension, which was injected in the peritoneal cavity or in the tail vein of the mice. After inoculating the last mice, the cells in the last tube were placed in a flask and monitored during several weeks under the microscope to ensure that all mice were inoculated with viable cells.
One day before the start of the treatments, mice were housed in individual cages to avoid cannibalism. Treatments started four, seven or eight days (depending on the model) after injecting the cancer cells. Most treatments with the artificial diets lasted at least 4 weeks. Treatment with the artificial diets simply consisted of replacing their normal diet with an artificial diet in which the levels of specific AAs and lipids were manipulated. Sunitinib, and capecitabine were administered daily in the diet. Cisplatin and the anti-PD1 antibody were injected intraperitoneally. Animals were monitored daily and body weights were determined periodically (at least three times per week). […] Post-mortem examination was carried out to confirm the cause of death and to observe the extent of the disease. Autopsies confirmed the presence of tumors in all euthanized mice. […]

B16-F10 cells = experiment: Survival of mice with melanoma (B16-F10 cells, intravenous model); format: in vivo, female C57BL/6J mice; conditions: B16-F10 cells, 500.000, tail vein injection (iv), C57BL/6J mice
Excerpt: as §1, §2, §3

Renca cancer cells = experiment: Survival of mice with renal cancer (Renca cells, intraperitoneal model); format: in vivo, male BALB/cAnNRJ mice
Excerpt: as §4, §5, §3

Row | SMILES | mean survival (FIG. 3) (CT26.WT cancer cells [1]; 100,000 CT26.WT cells tail vein, treatment from day 4, P6 28 days, capecitabine 450 mg/kg/day oral cycles, control 33.3 days) | Survival improvement vs untreated mice (mean, days) (CT26.WT cancer cells [1]; Colon cancer, CT26.WT cells, 10.000, tail vein injection (iv)) | mean survival (FIG. 2) (CT26.WT cancer cells [2]; 100,000 CT26.WT cells ip, treatment from day 4, P10 6 weeks, capecitabine 450 mg/kg/day oral cycles, control 24.6 days) | days lived more than untreated mice (CT26.WT cancer cells [2]; 100,000 CT26.WT cells ip, treatment from day 4, diets 6 weeks, capecitabine 450 mg/kg/day, 7-day treatment+7-day rest, oral) | Survival improvement vs untreated mice (mean, days) (CT26.WT cancer cells [2]; Colon cancer, CT26.WT cells, 10.000, intraperitoneal injection (ip)) | premature deaths by drug toxicity (4T1 cancer cells; 4T1 iv model, capecitabine 450 mg/kg/day, 7-day treatment+7-day rest, oral, n=10) | mean survival (FIG. 4) (4T1 cancer cells) | Survival improvement vs untreated mice (mean, days) (4T1 cancer cells) | Survival improvement vs untreated mice (mean, days) (B16-F10 cells) | mean survival (FIG. 1) (Renca cancer cells; 100,000 Renca cells ip, treatment from day 8, P2 28 days, sunitinib 60 mg/kg/day 28 days oral, anti-PD1 250 μg ip x4, control 35.2 days) | Mean survival (Renca cancer cells; 150,000 Renca cells ip, treatment from day 7, 28 days, 10 days normal diet, 21 more days, sunitinib 60 mg/kg/day oral, control 30.75) | Survival improvement vs. Control (Renca cancer cells; 150,000 Renca cells ip, treatment from day 7, Table 4 experiment) | Survival improvement vs untreated mice (mean, days) (Renca cancer cells; Renal cancer, renca cells, 100.000, intraperitoneal injection (ip))
1 | CCCCCOC(=O)Nc1nc(=O)n([C@@H]2O[C@H](C)[C@@H](O)[C@H]2O)cc1F [Capecitabine] | 36.7 days | 0.0 days | 27.7 days | 4.5 days | +7.6 days | two mice died prematurely by excessive drug toxicity | 24.2 days | +3.7 days | – | – | – | – | –
2 | N.N.[Cl][Pt][Cl] [Cisplatin] | – | – | – | – | – | – | 33.6 days | +4.7 days | +3.5 days | – | – | – | –
3 | CCN(CC)CCNC(=O)c1c(C)[nH]c(/C=C2\C(=O)Nc3ccc(F)cc32)c1C [Sunitinib, Sunitinib malate] | – | – | – | – | – | – | – | – | – | 62.2 days | 48 days | 17.25 days | +20.4 days

From US20230329304A1, “METABOLIC THERAPY OF CANCER” (AMINOVITA S.L., priority 2020, published 2023)
